Reference: US20170314056A1, “METHOD OF USING NEAR INFRARED FLUORESCENT DYES FOR IMAGING AND TARGETING CANCERS” (priority 2010, published 2017)
Entries after “also recorded” stand apart in the source; their conditions may differ.

What was measured:
normal human cells = test: Uptake of NIR dyes by cultured normal human cells; format: cell-based; conditions: HS-27A/BMC, NPE, NPF, HUVEC-CS, HEK293; 20 μM dye, 30 min
Description: Cells (1×10^4/well) were seeded on vitronectin-coated four-well chamber slides (Nalgen Nunc, Naperville, Ill.) and incubated with T-medium containing 5% FBS for 24 h. After the cells had attached to the chamber slides, the cells were washed with PBS (Phosphate Buffered Saline) and exposed to the cyanine dye at a concentration of 20 μM in T-medium. The slides were incubated at 37° C. for 30 min, washed twice with PBS to remove excess dyes, and cells were fixed with 10% formaldehyde at 4° C. The slides were then washed twice with PBS and covered with glass coverslips with an aqueous mounting medium (Sigma-Aldrich, St. Louis, Mo.). Images were recorded by confocal laser microscopy (Zeiss LSM 510 META, Germany) using a 633 nm excitation laser and 670-810 nm long pass filter, or a fluorescence microscope (Olympus 1×71; Olympus, Melville, N.Y.) equipped with a 75 W Xenon lamp and an Indo-Cyanine Green filter cube (excitation 750-800 nm; emission 820-860 nm) (Chroma, Rockingham, Vt.).
Cells (1×10^4/well) were seeded on vitronectin-coated four-well chamber slides (Nalgen Nunc, Naperville, Ill.) and incubated with T-medium containing 5% FBS for 24 h. After the cells had attached to the chamber slides, the cells were washed with PBS (Phosphate Buffered Saline) and exposed to the cyanine dye at a concentration of 20 μM in medium. The slides were incubated at 37° C. for 30 min, washed twice with PBS to remove excess dyes, and fixed with 10% formaldehyde at 4° C. The slides were then washed twice with PBS and covered with glass coverslips with aqueous mounting medium (Sigma-Aldrich, St. Louis, Mo.). Images were recorded by confocal laser microscopy (Zeiss LSM 510 META, Germany) equipped with 633 nm excitation laser and 670-810 nm long pass filter.

ARCaPM cells [1] = test: Live-cell kinetics of dye uptake in prostate cancer cells; format: cell-based, human; conditions: for uptake of dye in ARCaPM cells compared with normal P69 cells: 20 μM dye, live-cell spinning disc confocal
Description: ARCaPM Cells were plated on live-cell imaging chambers from World Precision Instrument (Sarasota, Fla.) overnight. Cells were treated with IR-780 with different concentrations and were imaged using a Perkin-Elmer Ultraview ERS spinning discconfocal microscope. This system was mounted on a Zeiss Axiovert 200m inverted microscope equipped with a 37° C. stage warmer, incubator, and CO2 perfusion. A x63 or x100 Zeiss oil objective (numerical aperture, 1.4) was used for all images and a Z-stack was created using the attached piezo electric z-stepper motor. The 633 nm laser line of an argon ion laser (set at 60% power) was used to excite the IR-780 organic dye. For each comparison, the exposure time and laser intensity was kept identical for accurate intensity measurement. Pixel intensity was quantitated using Metamorph 6.1 (Universal Imaging, Downingtown, Pa.) and the mean pixel intensity was generated as grey level using the Region Statistics feature on the software.
(§1) Cells were plated on live-cell imaging chambers (World Precision Instrument, Sarasota, Fla.) overnight. Cells were exposed to cyanine dyes at different concentrations and dye uptake was evaluated by a Perkin-Elmer Ultraview ERS spinning disc confocal microscope. This system was mounted on a Zeiss Axiovert 200m inverted microscope equipped with a 37° C. stage warmer, incubator, and constant CO2 perfusion. A 63× or 100× Zeiss oil objective (numerical aperture, 1.4) was used for live cell images and a Z-stack was created using the attached piezoelectric z-stepper motor. The 633 nm laser line of an argon ion laser (set at 60% power) was used to excite the cyanine dyes. […] For comparative studies, the exposure time and laser intensity were kept identical for accurate intensity measurements. Pixel intensity was quantified using Metamorph 6.1 (Universal Imaging, Downingtown, Pa.) and the mean pixel intensity was generated as grey level using the Region Statistics feature on the software (23). To determine the dye uptake by the mitochondria, the mitochondrial tracking dye Mito Tracker Orange CMTMROS (Molecular Probes, Carlsbad, Calif.) was used. To determine the dye localization in lysosomes, a lysosome tracking dye, Lyso Tracker Green DND-26 (Molecular Probes, Carlsbad, Calif.), was selected. Imaging of mitochondrial and/or lysosome localization of the cyanine dye was conducted under confocal microscopy (24).
To determine if the cyanine dye uptake and accumulation in cancer cells was dependent upon OATPs, cells were preincubated with 250 μM bromosulfophthalein (BSP), a competitive inhibitor of organic anion transporting peptides (OATPs) (25), for 5 minutes prior to incubating the cells with cyanine dyes. The uptake and accumulation of cyanine dyes in the presence and absence of BSP were conducted in the stage warmer incubator for a period of 35 minutes. The levels of cyanine dye taken up and accumulated in normal prostate (P69) and prostate cancer (ARCaPM) cells were determined and compared on a real-time basis.

ARCaPM cells [2] = test: Subcellular co-localization with mitochondria and lysosome tracking dyes; format: cell-based, human; conditions: Mito Tracker and Lyso Tracker co-staining
Description: as §1, with “Imaging of mitochondrial and/or lysosome localization of the cyanine dye was conducted under confocal microscopy (24).” left out

[3] = Dye distribution and clearance in normal mouse tissues; format: in vivo
Excerpt: One mouse was sacrificed at 96 hrs after IR-780 injection through tail vein, and isolated tissues and organs excised from mice were cut into frozen slides and were imaged under confocal microscope.
To assess tissue distribution of these dyes, athymic mice without tumor implantation were sacrificed at 0, 6 and 80 hrs (N=3 each) after i.v. injection of IR-783 dye at a dose of 10 nmol/20 g. Dissected organs were subjected to NIR imaging by a Kodak Imaging Station 4000 MM. In another study the mice bearing orthotopic ARCaPM tumors were subjected to NIR imaging at 0.5, 24, 48, 72 and 96 hrs after IR-783 i.v. administration at a dose of 10 nmol/20 g. In some cases, we also assessed the biodistribution of NIR dye by a spectral method in tissues harvested from athymic mice bearing subcutaneous ARCaPM tumors (N=6). Tumors and normal host organs were homogenized in PBS, centrifuged at 15,000×g for 15 minutes to recover the supernatant fraction after the mice were injected i.p. with IR-783 at a dose of 10 nmol/20 g. The presence of the organic dyes (parental IR-783 and its metabolites) in tissues was estimated spectrophotometrically at an emission wavelength of 820 nm by a PTI Near Infrared Fluorometer QuantaMaster™ 50 (PTI, Birmingham, N.J.) equipped with a 75-watt xenon arc lamp under 500 to 1700 nm InGaAs detector using known concentrations of IR-783 as the standard (28). In other cases, tumor tissues harvested from mice were stored in formalin from 1 week to 3 months, and fluorescence images were obtained and compared.

Compound	uptake of dye by normal human cells in culture (normal human cells)	uptake of dye in ARCaPM cells compared with normal P69 cells (ARCaPM cells [1])	early phase of uptake and retention completed (ARCaPM cells [1]; ARCaP cells) [min]	late phase of uptake and retention completed (ARCaPM cells [1]; ARCaP cells) [min]	subcellular localization of the dye (ARCaPM cells [2])	organs accumulating dye ([3]; 6 hrs after i.v. 10 nmol/20 g, normal mice)	dye in vital organs at 80 hrs ([3]; 80 hrs after i.v. 10 nmol/20 g, normal mice)	time by which dye was cleared from all mouse vital organs ([3]; i.v. 10 nmol/20 g, normal mice) [h]	time period within which dye was cleared from normal organs ([3]; liver, kidney, testis and seminal vesicles, live animals) [h]	dye concentration needed to measure uptake into cancer cells in culture (ARCaPM cells [1]; time course and concentration dependence) [µM]	dye uptake in normal mouse tissues ([3]; 96 hrs after injection through tail vein, frozen slides, confocal)
2-[2-[2-Chloro-3-[2-[1,3-dihydro-3,3-dimethyl-1-(4-sulfobutyl)-2H-indol-2-ylidene]-ethylidene]-1-cyclohexen-1-yl]-ethenyl]-3,3-dimethyl-1-(4-sulfobutyl)-3H-indolium [IR-783]	unable to be taken up by normal cells; also recorded: not to accumulate; also recorded: not taken up; also recorded: low uptake; also recorded: very low uptake	significant uptake	12	30	condense on mitochondrial and lysosomal organelles; also recorded: a large portion of the IR-783 was co-localized with these subcellular organelles	accumulate in mouse liver, kidney, lung and heart	completely cleared	≤ 80	≤ 96	–	–
CCCN1C(=CC=C2CCCC(C=CC3=[N+](CCC)c4ccccc4C3(C)C)=C2Cl)C(C)(C)c2ccccc21.[I-] [IR-780, 2-[2-[2-Chloro-3-[(1,3-dihydro-3,3-dimethyl-1-propyl-2H-indol-2-ylidene)ethylidene]-1-cyclohexen-1-yl]ethenyl]-3,3-dimethyl-1-propylindolium iodide]	unable to be taken up by normal cells; also recorded: very low uptake	big difference in IR-780 uptake by cancer cells and normal cells	–	–	co-localized with both mitochondria and lysosomes; also recorded: Co-localization of IR-780 and mitochondrial and lysosome were shown	–	–	–	–	20 to 50	all mouse tissues failed to uptake this organic dye
